Key:
[1] = 1E7-03 degradation in guinea pig plasma; type: in vitro ADME; details: 10 μM, 37°C, 4 hrs
Method: (§1) 1E7-03 dissolved in DMSO (10 mM stock solution) was mixed with mouse plasma (Sigma-Aldrich), guinea pig plasma (Sigma-Aldrich), ferret plasma (BioreclamationIVT), monkey plasma (courtesy of Binhua Ling, PhD, Tulane University) and human plasma (collected from heathy volunteer by the Center for Sickle Cell Disease at Howard University) to the final concentration of 10 μM and incubated at 37°C. Aliquots were collected at different time points for up to 24 hrs. The resulting sample (60 μl) was mixed with 240 μl of cold acetone, vortexed for 2 min, kept at –20°C for 30 min, and then the precipitated protein was removed by centrifugation at 13,000 × g for 5 min. The supernatant was transferred to a clean test tube and evaporated to dryness using a SpeedVac concentrator. The residue reconstituted in 60 μl of acetonitrile for LC/FT-MS analysis. All experiments were run parallel in triplicates.

HIV-1 integration = experiment: HIV-1 integration, Alu-Gag real-time PCR in CEM T cells; type: cell-based; details: 10 μM, DNA 6 hrs post infection, in words
Method: To assay HIV-1 integration, CEM T cells were infected with HIV-1-LUC-G virus and treated with 10 μM 1E7-03 or DMSO. Total DNA was extracted from cells using lysis buffer (10 mM Tris-HCl pH 8.0, 10 mM EDTA, 5 mM NaCl, 200 μg/ml proteinase K). The cells were lysed for 20-30 min at room temperature and proteinase K was inactivated by heating to 95°C for 5 min. For the real-time PCR analysis, 100 ng DNA was amplified using Roche Light Cycler 480 (Roche Diagnostics) and SYBR Green1 Master mix (Roche Diagnostics). PCR was carried with initial preincubation for 5 min at 45°C and then for 3 in at 95°C followed by 45 cycles of denaturation at 95°C for 15 sec, annealing and extension at 60°C for 45 sec, and final extension at 72°C for 10 sec. Integrated HIV-1 DNA was amplified using the following primers: Alu forward 5'-[…]-3', and Gag reverse 5'-[…]-3'.

HIV-1 89.6 = experiment: Antiviral efficacy in HIV-1 89.6-infected humanized NSG mice; type: in vivo; details: 48 hrs
Method: NOD.Cg-Prkdcscid Il2rgtm1Wjl/SzJ (NSG) mice initially purchased from Jackson Laboratories were bred and maintained in the Animal Core Facility at George Mason University (Manassas, VA). NSG mice were generated by i.p. injection of cryopreserved human CD34+ hematopoietic stem progenitor cells (HSPC) (500,000 cells per mouse) isolated from the autologous fetal liver. Anesthetized mice were inoculated by direct injection 16 weeks after implantation with 50 μl of HIV-1 89.6 (1,000 TCID50) or RPMI 1640 medium (mock infection). […] Blood was collected by tail vein after 48 hrs and transferred into microcentrifuge tubes containing 330 mM EDTA. Each data point represents the blood from a single animal. Plasma was removed after low-speed centrifugation for 5 min at room temperature and stored at -80°C. Viral RNA was extracted from plasma using the QIAamp Viral RNA Mini Kit (Qiagen). For quantitative analysis of HIV-1 RNA, total RNA was isolated from blood specimens of HIV-1-infected humanized mice. RNA was isolated using Trizol Reagent (Invitrogen, Carlsbad, CA) according to the manufacturer's protocol. A total of 1.0 μg of RNA was treated with 0.25 mg/ml DNase I RNase-free (Roche, Mannheim, Germany) for 60 min in the presence of 5 mM MgCl2, followed by heat inactivation at 65 °C for 15 min. A 200–250 ng aliquot of total RNA was used to generate cDNA with the GoScript Reverse Transcription System (Promega, Madison, WI) using TAR-specific reverse primer TAR+59R: 5′- […] -3′. Subsequent quantitative real-time PCR analysis was performed with 2 μl of undiluted RT reaction mixes. The iQ Supermix (Bio-Rad, Hercules, CA) was used with the primers specific for (1) HIV-1 TAR: TARfll-F: 5′-[…]-3′ and TAR+59R as above; (2) HIV-1 TAR-gag: Gag 1625R: 5’- […] -3’ and TAR+59R as above. Real-time PCR reactions were carried out in triplicate.

[2] = 1E7-03 degradation in monkey plasma; type: in vitro ADME; details: 37°C
Method: as §1

HIV-1 env and gag mRNA = HIV-1 env and gag mRNA expression by real-time RT-PCR in infected CEM T cells; type: cell-based; details: 10 μM 1E7-03, DP1, DP3; 5 μM AZT, 3TC; in words
Method: For quantitative analysis of HIV-1 RNA, CEM T cells were infected with HIV-1-LUC-G virus. Cells were treated with 10 μM 1E7-03, 10 μM DP1, 10 μM DP3, 5 μM AZT or 5 μM 3TC and control cells were untreated or treated with DMSO. Total RNA was isolated using Trizol Reagent (Invitrogen, Carlsbad, CA) according to the manufacturer's protocol. Total RNA (100 ng) was reverse transcribed to cDNA using Superscript™ RT-PCR kit (Invitrogen, Carlsbad, CA). Hexamers and oligo-dT were used as primers. For real-time PCR analysis, cDNA was amplified using Roche LightCycler 480 (Roche Diagnostics) and SYBR Green1 Master mix (Roche Diagnostics). PCR was run for 45 cycles and each cycle included denaturation at 95°C for 10 seconds, annealing at 60°C for 10 seconds, and extension at 72°C for 10 seconds. Quantification of env and gag was carried using 18S RNA as a normalization standard. Quantification of housekeeping genes, β-actin and RSP13 was carried relative to 18S RNA. Mean Cp values were determined and ΔΔCt method was used to calculate relative expression levels. Unpaired t-test was used to test statistical significance.
The following primer sequences were used: env, forward - […], reverse-[…]; gag, forward- […], reverse- […]; β-actin, forward- […], reverse-[…]; RSP13, forward- […], reverse- […]; and 18SrRNA, forward- […], reverse- […].

[3] = 1E7-03 degradation in human plasma; type: in vitro ADME; details: 37°C
Method: as §1

SMILES	% of compound degraded [1]	effect on HIV-1 integration (HIV-1 integration)	fold reduction of HIV TAR RNA (HIV-1 89.6; single i.p. dose, 1E7-03 3 mg/kg, F07#13 […], vs untreated mice, Figure 6A)	fold reduction of HIV TAR-gag RNA (HIV-1 89.6; single i.p. dose, 1E7-03 3 mg/kg, F07#13 […], vs untreated mice, Figure 6B)	remaining at 24 h, 10 µM [2]	HIV-1 env mRNA expression (HIV-1 env and gag mRNA)	HIV-1 gag mRNA expression (HIV-1 env and gag mRNA)	remaining at 24 h, 10 µM [3]	fold reduction of HIV TAR RNA (HIV-1 89.6; single i.p. dose 3 mg/kg, Figure 7G)
CCNC(=O)NC(=O)C(C)OC(=O)c1c2c(nc3ccccc13)/C(=C/c1ccc(OC)c(OC)c1)CC2 (stereo not shown) [1E7-03]	about 80%	did not show any significant effect	> 40 fold	> 39 fold	> 50%	significantly reduced	significantly reduced	> 50%	–
COc1ccc(/C=C2\CCCc3c2nc2ccccc2c3C(=O)OC(C)C(=O)OC(C)(C)C)cc1OC (stereo not shown) [DP1-07]	–	–	–	–	–	–	–	–	3.8 fold
COc1ccc(/C=C2\CCc3c2nc2ccccc2c3C(=O)OC(C)C(=O)O)cc1OC (stereo not shown) [DP1]	–	–	–	–	–	not affected	not affected	–	–
COc1ccc(/C=C2\CCc3c2nc2ccccc2c3C(=O)O)cc1OC [DP3]	–	–	–	–	–	not affected	not affected	–	–
